For one assay, the system named is C2C12alpha10. The assay can be described thus: In vitro cytotoxicity (WST-1), C2C12alpha10. The format is cell-based, mouse. Conditions: monolayer, 5 days. As to the method:
(§1) • Aim: To evaluate the in vitro efficacy of Th-Ab12-ADC in different cell lines. Material and Methods: Cells were seeded either as monolayer (C2C12alpha10, C2C12alpha11 and A204) or as spheres (BT549, Hs578T, U3046MG, U3054MG and SJSA-1) and treated with the IgG1 isotype control Ctrl-ADC or Th-Ab12-ADC at different concentrations ([…]) for 5 days (C2C12alpha10, C2C12alpha11, A204 and SJSA-1) or 10 days (BT549, Hs578T, U3046MG and U3054MG). On the day of termination, the cells were incubated for 3-4 hours with WST-1, which measures the viable cells, and the plates were read at OD450 nm wavelength via SpectraMax. The dose response curves and IC50 values were generated in GraphPad Prism 9. The WST-1 assay is based on the cleavage of tetrazolium salt WST-1 for formazan by cellular mitochondrial dehydrogenases. […] The differences in IC50 values between control ADC and Th-Ab12-ADC supports a relatively large therapeutic window for each cell line (Table 3).

In the next assay the test system is C2C12alpha11. Nature of the assay: In vitro cytotoxicity (WST-1), C2C12alpha11. It counts as cell-based, mouse. The note with it: monolayer, 5 days. The method, then:
as §1
(In general: Tetrazolium dyes change colour on reduction, which living cells bring about.)

The test system of another assay is BT549. Nature of the assay: In vitro cytotoxicity (WST-1), BT549. It counts as cell-based. Conditions: spheres, 10 days. The method, then:
as §1

A further assay concerns Hs578T. The assay can be described thus: In vitro cytotoxicity (WST-1), Hs578T. It counts as cell-based. The note with it: spheres, 10 days. The method, then: as §1
The subject of another assay is U3046MG. Nature of the assay: In vitro cytotoxicity (WST-1), U3046MG. The format is cell-based, human. The note with it: spheres, 10 days. As to the method:
as §1

The next assay relates to U3054MG. The assay can be described thus: In vitro cytotoxicity (WST-1), U3054MG. Conditions: spheres, 10 days. The format is cell-based, human. The method, then: as §1
A further assay relates to A204. Nature of the assay: In vitro cytotoxicity (WST-1), A204. The format is cell-based. Conditions: monolayer, 5 days. As to the method: as §1
A further assay concerns SJSA-1. The assay can be described thus: In vitro cytotoxicity (WST-1), SJSA-1. The format is cell-based. Conditions: spheres, 5 days. The method, then:
as §1

Assay [1] has as its target T1, integrin alpha11 (C2C12alpha11 cells) (human, UniProt Q9UKX5).
T1 chain: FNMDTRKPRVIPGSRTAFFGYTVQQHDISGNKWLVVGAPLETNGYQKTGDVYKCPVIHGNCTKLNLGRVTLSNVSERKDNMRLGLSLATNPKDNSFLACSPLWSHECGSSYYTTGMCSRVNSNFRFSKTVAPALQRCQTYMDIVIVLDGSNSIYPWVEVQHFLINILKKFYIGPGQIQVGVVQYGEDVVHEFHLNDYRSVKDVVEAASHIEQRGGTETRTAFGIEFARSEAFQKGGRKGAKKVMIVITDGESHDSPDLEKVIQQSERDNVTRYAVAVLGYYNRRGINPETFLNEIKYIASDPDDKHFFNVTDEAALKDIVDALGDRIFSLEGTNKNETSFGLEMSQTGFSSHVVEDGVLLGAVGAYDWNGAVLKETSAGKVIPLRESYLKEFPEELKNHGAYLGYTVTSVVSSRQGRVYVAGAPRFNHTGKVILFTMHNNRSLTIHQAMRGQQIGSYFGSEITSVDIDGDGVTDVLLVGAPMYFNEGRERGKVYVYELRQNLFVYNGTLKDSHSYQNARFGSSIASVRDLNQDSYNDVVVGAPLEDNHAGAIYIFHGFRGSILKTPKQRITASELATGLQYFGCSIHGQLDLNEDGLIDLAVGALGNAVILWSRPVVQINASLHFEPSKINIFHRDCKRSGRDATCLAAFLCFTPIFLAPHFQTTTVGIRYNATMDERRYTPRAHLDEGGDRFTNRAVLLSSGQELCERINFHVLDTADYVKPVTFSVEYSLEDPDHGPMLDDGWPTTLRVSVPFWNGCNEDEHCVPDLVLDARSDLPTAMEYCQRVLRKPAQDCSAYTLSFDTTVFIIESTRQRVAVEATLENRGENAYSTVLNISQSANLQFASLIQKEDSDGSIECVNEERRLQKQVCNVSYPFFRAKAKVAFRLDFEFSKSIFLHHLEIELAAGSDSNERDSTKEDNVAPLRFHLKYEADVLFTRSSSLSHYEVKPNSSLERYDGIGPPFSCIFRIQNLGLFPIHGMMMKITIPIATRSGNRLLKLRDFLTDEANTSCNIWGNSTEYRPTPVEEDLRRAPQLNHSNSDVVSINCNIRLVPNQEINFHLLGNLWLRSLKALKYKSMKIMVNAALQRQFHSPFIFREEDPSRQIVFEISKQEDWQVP
The assay can be described thus: FACS, C2C12alpha11 cells. Background: A flow cytometer gives signals particle by particle.

Assay [2] concerns the target T2, integrin alpha10 (alpha10beta1, cell-expressed) (human, UniProt O75578).
T2 chain: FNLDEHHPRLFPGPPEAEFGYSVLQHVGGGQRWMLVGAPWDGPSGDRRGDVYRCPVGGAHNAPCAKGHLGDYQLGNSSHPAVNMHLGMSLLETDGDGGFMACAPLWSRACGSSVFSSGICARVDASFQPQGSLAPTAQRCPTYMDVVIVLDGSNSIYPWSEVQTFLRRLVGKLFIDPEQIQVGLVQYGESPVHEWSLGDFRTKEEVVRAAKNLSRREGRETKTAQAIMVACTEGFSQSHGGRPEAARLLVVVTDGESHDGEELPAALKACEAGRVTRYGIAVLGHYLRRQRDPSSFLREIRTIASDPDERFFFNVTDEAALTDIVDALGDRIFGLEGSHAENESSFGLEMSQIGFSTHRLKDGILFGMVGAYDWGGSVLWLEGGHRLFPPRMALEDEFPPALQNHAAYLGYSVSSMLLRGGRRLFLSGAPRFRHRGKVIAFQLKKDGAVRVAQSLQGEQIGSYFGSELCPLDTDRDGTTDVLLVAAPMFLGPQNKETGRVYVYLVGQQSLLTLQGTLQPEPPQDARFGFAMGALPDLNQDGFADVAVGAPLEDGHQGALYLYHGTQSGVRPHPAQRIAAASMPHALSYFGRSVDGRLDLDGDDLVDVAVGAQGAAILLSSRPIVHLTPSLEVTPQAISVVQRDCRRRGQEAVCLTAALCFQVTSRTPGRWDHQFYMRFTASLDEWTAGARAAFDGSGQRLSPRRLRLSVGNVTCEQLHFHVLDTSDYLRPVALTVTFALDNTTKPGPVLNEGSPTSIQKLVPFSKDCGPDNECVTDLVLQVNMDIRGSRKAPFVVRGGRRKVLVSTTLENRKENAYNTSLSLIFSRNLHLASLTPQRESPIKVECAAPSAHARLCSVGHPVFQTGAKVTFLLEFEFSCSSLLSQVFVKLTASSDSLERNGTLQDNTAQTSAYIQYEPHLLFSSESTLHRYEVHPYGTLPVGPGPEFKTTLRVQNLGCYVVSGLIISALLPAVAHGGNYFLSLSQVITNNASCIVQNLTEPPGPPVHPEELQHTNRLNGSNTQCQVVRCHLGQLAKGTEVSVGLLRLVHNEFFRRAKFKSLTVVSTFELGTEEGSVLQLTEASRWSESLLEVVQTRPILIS
Nature of the assay: FACS, upper end of range 0.9-2.69 nM over seven cell lines.

Assay [3] deals with T2, integrin alpha10 (alpha10beta1, …). Nature of the assay: FACS, lower end of range 0.9-2.69 nM over seven cell lines.

Numbering of substitutions follows the chain as printed.

Take `COc1cccc2c1C(=O)c1c(O)c3c(c(O)c1C2=O)CC(O)(C(=O)CO)CC3OC1CC2C(OC3C(OC)OCCN23)C(C)O1` [PNU-159682, 3′-deamino-3″-4′-anhydro-[2″(S)-methoxy-3″(R)-hydroxy-4″-morpholinyl]doxorubicin]: the concentration for half-maximal inhibition (IC50) (commonly the concentration needed to halve the response being measured) with C2C12alpha10 was found to be 0.027 nM; with C2C12alpha11, 0.018 nM; in the assay with BT549 it was 1.4 nM; in the assay on Hs578T, 0.981 nM; in the assay on U3046MG, 0.077 nM; in the assay on U3054MG, 0.145 nM. In addition, the concentration for half-maximal inhibition (IC50) in the assay on A204 is 0.023 nM; in the assay with SJSA-1, 0.077 nM.

B1: Th-Ab15 (antibody, V domains shown)
VH: QVQLVQSGAEVKKPGASVKVSCKTSGYTFTEYYVIWVRQAPGQGLEWLGWIFPGSGRTYYSEKFRGRATITVDKSTSTAYMELSSLRSEDTAVYYCARDNYGSSGKFFAYWGQGTLVTVSS
VL: DVVMTQSPLSLPVTLGQPASISCRSSQSLVHSNGNTYLHWYQQKPGQPPKLLIYKVSNRFSGVPDRFSGSGSGTDFTLKISRVEAEDVGVYYCSQSTHVPYTFGQGTKLEIK
Turning to B1, in assay [1], the binding result is recorded as “no binding”.

B2: Th-Ab9 (antibody, V domains shown)
VH: B1 VH with V34I
VL: B1 VL
Turning to B2, the binding result in assay [1] was “no binding”.

B3: Th-Ab12-ADC (antibody, V domains shown)
VH: B1 VH with V34I, A68V, V72A
VL: B1 VL
modifications: ADC, conjugated to PNU-159682-type payload; constant regions SEQ21 (heavy) and SEQ20 (light)
Regarding B3, the binding result in assay [1] is listed as “no binding”. Besides, the half-maximal effective concentration (EC50) – broadly, the concentration needed to bring the measured effect to its halfway point – in [2] is under 2.69 nM; in assay [3], over 0.9 nM.

B4: Th-Ab14 (antibody, V domains shown)
VH: B1 VH
VL: B1 VL with Y92F
As to B4, in [1], the binding result is reported as “no binding”.

B5: Th-Ab11 (antibody, V domains shown)
VH: B1 VH with V34I, A68V, V72A
VL: B1 VL with Y92F
Take B5: in assay [1], the binding result is recorded as “no binding”.

B6: Th-Ab12 (antibody, V domains shown)
VH: B1 VH with V34I, A68V, V72A
VL: B1 VL
Regarding B6, the binding result in assay [1] is on record as “no binding”.

Source of the values: patent US20260345803A1, “An Integrin Alpha10 Antibody Drug Conjugate” (Targinta AB, priority 2022, published 2026).
